ChEMBL document CHEMBL6096722, “A Hypoxia-Activated BODIPY-Azo Anticancer Prodrug for Bimodal Chemo-Photodynamic Therapy” (J Med Chem, 2025)
pIC50: −log10 of the molar value. Active and inactive are the calls of the source. The rule behind the calls is not given here.

Experiments:
[1] = test system: A-375; test: Cytotoxicity against human A-375 cells assessed as cell viability at upto 100 uM preincubated with compound for 4 hrs followed by light irradiation for 30 mins and measured after 24 hrs under hypoxic condition by CCK-8 assay; assay type: functional, cell-based; conditions: time 28.5 hrs
[2] = test system: A-375; test: Induction of apoptosis in human A-375 cells assessed as early apoptotic cells at 6 uM incubated for 24 hrs under hypoxia condition by Annexin V-FITC staining based flow cytometry analysis; assay type: functional
[3] = test system: A-375; test: Cytotoxicity against human A-375 cells assessed as cell viability at 100 uM preincubated with compound for 4 hrs followed by light irradiation for 30 mins and measured after 24 hrs by CCK-8 assay; assay type: functional, cell-based; conditions: time 28.5 hrs
[4] = test system: A-375; test: Induction of apoptosis in human A-375 cells assessed as late apoptotic cells at 4 uM incubated for 24 hrs under normoxia condition by Annexin V-FITC staining based flow cytometry analysis; assay type: functional
[5] = test system: A-375; test: Induction of apoptosis in human A-375 cells assessed as late apoptotic cells at 6 uM incubated for 24 hrs under hypoxia condition by Annexin V-FITC staining based flow cytometry analysis; assay type: functional
[6] = test system: A-375; test: Induction of apoptosis in human A-375 cells assessed as necrotic cells at 2 uM incubated for 24 hrs under hypoxia condition by Annexin V-FITC staining based flow cytometry analysis; assay type: functional
[7] = test system: A-375; test: Antitumor activity against human A-375 cells xenografted in male BALB/c mouse assessed as tumor growth inhibition at 2.9 mg/ml, ip measured for 60 mins with light irradiation; assay type: functional; conditions: A-375, light or radiation study, 1 h, read-out: TGI
[8] = test system: A-375; test: Induction of apoptosis in human A-375 cells assessed as early apoptotic cells at 6 uM incubated for 24 hrs under normoxia condition by Annexin V-FITC staining based flow cytometry analysis; assay type: functional
[9] = test system: A-375; test: Induction of ROS generation in human A-375 cells assessed as increase fluorescence intensity at 10 uM incubated with compound for 24 hrs by DCFH-DA staining based analysis; assay type: functional, cell-based
[10] = test system: A-375; test: Induction of apoptosis in human A-375 cells assessed as early apoptotic cells at 2 uM incubated for 24 hrs under normoxia condition by Annexin V-FITC staining based flow cytometry analysis; assay type: functional
[11] = test system: A-375; test: Cytotoxicity against human A-375 cells assessed as cell viability at 0.25 to 16 uM incubated for 4 hrs by CCK-8 assay; assay type: functional; conditions: dose 0.25-16 µM
[12] = test system: A-375; test: Antitumor activity against human A-375 cells assessed as cell viability incubated for 4 hrs under hypoxia condition by MTT assay; assay type: functional, cell-based; conditions: A-375, 4 h
[13] = test system: A-375; test: Antitumor activity against human A-375 cells assessed as cell viability incubated for 4 hrs under normoxic condition by MTT assay; assay type: functional, cell-based; conditions: A-375, 4 h
[14] = test system: A-375; test: Induction of apoptosis in human A-375 cells assessed as necrotic cells at 6 uM incubated for 24 hrs under normoxia condition by Annexin V-FITC staining based flow cytometry analysis; assay type: functional
[15] = Induction of singlet oxygen quantum yield under irradiation with 590 nm LED light by DPBF based assay; assay type: functional
[16] = test system: A-375; test: Induction of apoptosis in human A-375 cells assessed as viable cells at 4 uM incubated for 24 hrs under hypoxia condition by Annexin V-FITC staining based flow cytometry analysis; assay type: functional; conditions: read-out: Activity
[17] = test system: A-375; test: Induction of apoptosis in human A-375 cells assessed as necrotic cells at 2 uM incubated for 24 hrs under normoxia condition by Annexin V-FITC staining based flow cytometry analysis; assay type: functional
[18] = Cytotoxicity against human HUVEC cells assessed as cell viability at upto 100 uM incubated for 4 hrs by CCK-8 assay; assay type: toxicity, cell-based; conditions: read-out: Activity
[19] = test system: A-375; test: Induction of apoptosis in human A-375 cells assessed as viable cells at 2 uM incubated for 24 hrs under normoxia condition by Annexin V-FITC staining based flow cytometry analysis; assay type: functional; conditions: read-out: Activity
[20] = test system: A-375; test: Induction of apoptosis in human A-375 cells assessed as viable cells at 6 uM incubated for 24 hrs under normoxia condition by Annexin V-FITC staining based flow cytometry analysis; assay type: functional; conditions: read-out: Activity
[21] = test system: A-375; test: Induction of apoptosis in human A-375 cells assessed as necrotic cells at 6 uM incubated for 24 hrs under hypoxia condition by Annexin V-FITC staining based flow cytometry analysis; assay type: functional
[22] = test system: A-375; test: Antitumor activity against human A-375 cells assessed as cell viability preincubated with compound for 4 hrs followed by light irradiation for 30 mins and measured after 24 hrs under hypoxic condition by MTT assay; assay type: functional, cell-based; conditions: A-375, light or radiation study
[23] = test system: A-375; test: Induction of apoptosis in human A-375 cells assessed as necrotic cells at 4 uM incubated for 24 hrs under hypoxia condition by Annexin V-FITC staining based flow cytometry analysis; assay type: functional
[24] = test system: A-375; test: Induction of apoptosis in human A-375 cells assessed as necrotic cells at 4 uM incubated for 24 hrs under normoxia condition by Annexin V-FITC staining based flow cytometry analysis; assay type: functional
[25] = test system: A-375; test: Cytotoxicity against human A-375 cells assessed as cell viability at 100 uM incubated for 4 hrs by CCK-8 assay; assay type: functional; conditions: read-out: Activity
[26] = test system: A-375; test: Induction of apoptosis in human A-375 cells assessed as late apoptotic cells at 2 uM incubated for 24 hrs under hypoxia condition by Annexin V-FITC staining based flow cytometry analysis; assay type: functional
[27] = Retention time of the compound by HPLC-MASS analysis; assay type: physicochemical
[28] = test system: A-375; test: Induction of apoptosis in human A-375 cells assessed as late apoptotic cells at 6 uM incubated for 24 hrs under normoxia condition by Annexin V-FITC staining based flow cytometry analysis; assay type: functional
[29] = test system: A-375; test: Induction of apoptosis in human A-375 cells assessed as early apoptotic cells at 2 uM incubated for 24 hrs under hypoxia condition by Annexin V-FITC staining based flow cytometry analysis; assay type: functional
[30] = test system: A-375; test: Induction of apoptosis in human A-375 cells assessed as late apoptotic cells at 4 uM incubated for 24 hrs under hypoxia condition by Annexin V-FITC staining based flow cytometry analysis; assay type: functional
[31] = test system: A-375; test: Induction of apoptosis in human A-375 cells assessed as viable cells at 2 uM incubated for 24 hrs under hypoxia condition by Annexin V-FITC staining based flow cytometry analysis; assay type: functional; conditions: read-out: Activity
[32] = Photostability of compound in PBS buffer at pH 7.4 at 10 uM under 20 W/cm2 white LED light irradiation measured for 60 mins by absorption based assay; assay type: physicochemical; conditions: pH 7.4, 1 h
[33] = test system: A-375; test: Antitumor activity against human A-375 cells assessed as cell viability preincubated with compound for 4 hrs followed by light irradiation for 30 mins and measured after 24 hrs under normoxic condition by MTT assay; assay type: functional, cell-based; conditions: A-375, light or radiation study
[34] = Selectivity index, ratio of IC50 for antitumor activity against human A-375 cells assessed as cell viability incubated for 4 hrs under hypoxic condition by MTT assay to IC50 for antitumor activity against human A-375 cells assessed as cell viability incubated for 4 hrs under normoxic condition by MTT assay; assay type: functional
[35] = test system: A-375; test: Induction of apoptosis in human A-375 cells assessed as viable cells at 6 uM incubated for 24 hrs under hypoxia condition by Annexin V-FITC staining based flow cytometry analysis; assay type: functional; conditions: read-out: Activity
[36] = Photostability of compound in PBS buffer at pH 7.4 at 10 uM under 20 W/cm2 white LED light irradiation measured upto 10 mins by absorption based assay; assay type: physicochemical; conditions: pH 7.4, 10 min
[37] = test system: A-375; test: Induction of apoptosis in human A-375 cells assessed as early apoptotic cells at 4 uM incubated for 24 hrs under hypoxia condition by Annexin V-FITC staining based flow cytometry analysis; assay type: functional
[38] = test system: A-375; test: Induction of ROS generation in human A-375 cells assessed as increase in green fluorescence at 10 uM preincubated with compound for 24 hrs followed by light irradiation for 30 mins and measured after 30 mins by DCFH-DA staining based fluorescence microscopic analysis; assay type: functional, cell-based; conditions: time 25.0 hrs
[39] = test system: A-375; test: Induction of apoptosis in human A-375 cells assessed as early apoptotic cells at 4 uM incubated for 24 hrs under normoxia condition by Annexin V-FITC staining based flow cytometry analysis; assay type: functional
[40] = test system: A-375; test: Cytotoxicity against human A-375 cells assessed as cell viability at upto 100 uM incubated for 4 hrs under hypoxic condition by CCK-8 assay; assay type: functional, cell-based
[41] = test system: A-375; test: Induction of apoptosis in human A-375 cells assessed as viable cells at 4 uM incubated for 24 hrs under normoxia condition by Annexin V-FITC staining based flow cytometry analysis; assay type: functional; conditions: read-out: Activity
[42] = test system: A-375; test: Induction of apoptosis in human A-375 cells assessed as late apoptotic cells at 2 uM incubated for 24 hrs under normoxia condition by Annexin V-FITC staining based flow cytometry analysis; assay type: functional
[43] = Toxicity in BALB/c mouse assessed at 2.9 mg/ml, ip assessed as morphological changes in tumor measured for 60 mins with light irradiation by H and E staining based analysis; assay type: organism-based; conditions: in vivo, 1 h
[44] = test system: A-375; test: Anticancer activity against human A-375 cells measured at 12 to 30 hrs under hypoxic condition; assay type: functional, cell-based; conditions: time 12-30 hrs
[45] = Toxicity in BALB/c mouse assessed change in body weight at 2.9 mg/ml, ip measured for 60 mins with light irradiation; assay type: organism-based; conditions: in vivo, 1 h
[46] = test system: A-375; test: Cytotoxicity against human A-375 cells assessed as cell viability at >1 uM preincubated with compound for 4 hrs followed by light irradiation for 30 mins and measured after 24 hrs by CCK-8 assay; assay type: functional, cell-based; conditions: time 28.5 hrs
[47] = test system: A-375; test: Anticancer activity against human A-375 cells measured at 24 hrs under hypoxic condition; assay type: functional, cell-based

In the case of CC1=C(Br)C(C)=[N+]2C1=C(c1ccccc1)c1c(C)c(Br)c(/C=C/c3ccc(OCc4ccc(/N=N/c5ccc(N(CCCl)CCCl)cc5)cc4)cc3)n1[B-]2(F)F, the Activity [1] was “Active”, the Activity [2] was 1.832% and the Activity [3] was “Active”. For the same compound, the Activity [4] was 6.769%, the Activity [5] was 3.285% and the Activity [6] was 13.664%. The inhibition in vivo at 2900 µg/mL [7] was 92%, the Activity [8] was 12.663% and the Activity [9] was “Active”. For the same compound, the Activity [10] was 4.467%, the Activity [11] was greater than 80% and the pIC50 [12] was less than 4.80. The pIC50 [13] was less than 4.00, the Activity [14] was 0.247% and the Activity [15] was “Active”. For the same compound, the viability at 4 µM [16] was 94.8%, the Activity [17] was 0.058% and the viability at 4 h, 100 µM [18] was greater than 90%. For the same compound, the viability at 2 µM [19] was 92.7%, the viability at 6 µM [20] was 71.7% and the Activity [21] was 1.274%. The pIC50 [22] was 5.38, the Activity [23] was 0.975% and the Activity [24] was 0.185%. The viability at 100 µM [25] was roughly 50%, the Activity [26] was 1.663% and the Retention_time [27] was 1.422 min. It also gave an Activity [28] of 15.404%, an Activity [29] of 0.809% and an Activity [30] of 3.098%. The viability at 2 µM [31] was 96.3%, the Stability [32] was “Stable” and the pIC50 [33] was 5.87. The “Ratio IC50” value [34] was 11.02, the viability at 6 µM [35] was 93.6% and the Stability [36] was “Stable”. The Activity [37] was 0.147%, the Activity [38] was “Active” and the Activity [39] was 7.534%. For the same compound, the Activity [40] was “Active”, the viability at 4 µM [41] was 85.5% and the Activity [42] was 2.806%.
With CC1=C(Br)C(C)=[N+]2C1=C(c1ccccc1)c1c(C)c(Br)c(/C=C/c3ccc(O)cc3)n1[B-]2(F)F the Activity [1] was “Active”, the Activity [3] was “Active” and the inhibition in vivo at 2900 µg/mL [7] was 71%. The Activity [9] was “Active”, the Activity [11] was greater than 80% and the pIC50 [12] was less than 4.80. For the same compound, the pIC50 [13] was less than 4.00, the Activity [15] was “Active” and the Activity [43] was “Non-toxic”. The viability at 4 h, 100 µM [18] was greater than 90%, the Activity [44] was “Active” and the pIC50 [22] was 6.11. For the same compound, the viability at 100 µM [25] was roughly 50%, the Retention_time [27] was 3.5 min and the Activity [45] was “Non-toxic”. The Stability [32] was “Stable”, the pIC50 [33] was 5.16 and the Activity [46] was “Active”. For the same compound, the “Ratio IC50” value [34] was 309.63, the Stability [36] was “Stable” and the Activity [38] was “Active”. The Activity [47] was “Active” and the Activity [40] was “Active”.
